Legend:
Assay in all cases: biochemical
Conditions in all cases: read-out: Percentage of inhibition / BIIB021 1×10-5 mol/L; competitive radioligand binding
[1] = target: T1, Norepinephrine transporter (Human) (Homo sapiens, UniProt P23975)
T1 construct: gene SLC6A2
Experimental: (§1) Percent inhibition for each protein was calculated following the reported method (Okamura et al. [2013]).

Histamine H2 (Human) = target: T2, Histamine H2 (Human) (Homo sapiens, UniProt P25021)
T2 construct: gene HRH2
Experimental: as §1

Bradykinin B2 (Human) = target: T3, Bradykinin B2 (Human) (Homo sapiens, UniProt P30411)
T3 construct: gene BDKRB2
Experimental: as §1

Muscarinic M2 (Human) = target: T4, Muscarinic M2 (Human) (Homo sapiens, UniProt P08172)
T4 construct: gene CHRM2
Experimental: as §1

α1B-Adrenergic = target: T5, α1B-Adrenergic (Rattus norvegicus, UniProt P15823)
T5 construct: gene Adra1b
Experimental: as §1

Glucocorticoid (Human) = target: T6, Glucocorticoid (Human) (Homo sapiens, UniProt P04150)
T6 construct: gene NR3C1
Experimental: as §1

Adenosine A1 (Human) = target: T7, Adenosine A1 (Human) (Homo sapiens, UniProt P30542)
T7 construct: gene ADORA1
Experimental: as §1

Cannabinoid CB1 (Human) = target: T8, Cannabinoid CB1 (Human) (Homo sapiens, UniProt P21554)
T8 construct: gene CNR1
Experimental: as §1

[2] = target: T9, Dopamine transporter (Human) (Homo sapiens, UniProt Q01959)
T9 construct: gene SLC6A3
Experimental: as §1

Angiotensin AT1 (Human) = target: T10, Angiotensin AT1 (Human) (Homo sapiens, UniProt P30556)
T10 construct: gene AGTR1
Experimental: as §1

Melatonin MT1 (Human) = target: T11, Melatonin MT1 (Human) (Homo sapiens, UniProt P48039)
T11 construct: gene MTNR1A
Experimental: as §1

Vasopressin V1 = target: T12, Vasopressin V1 (Rattus norvegicus, UniProt P30560)
T12 construct: gene Avpr1a
Experimental: as §1

CCK A (Human) = target: T13, CCK A (Human) (Homo sapiens, UniProt P32238)
T13 construct: gene CCKAR
Experimental: as §1

β2-Adrenergic (Human) = target: T14, β2-Adrenergic (Human) (Homo sapiens, UniProt P07550)
T14 construct: gene ADRB2
Experimental: as §1

Opiate μ (Human) = target: T15, Opiate μ (Human) (Homo sapiens, UniProt P35372)
T15 construct: gene OPRM1
Experimental: as §1

Dopamine D3 (Human) = target: T16, Dopamine D3 (Human) (Homo sapiens, UniProt P35462)
T16 construct: gene DRD3
Experimental: as §1

Histamine H3 (Human) = target: T17, Histamine H3 (Human) (Homo sapiens, UniProt Q9Y5N1)
T17 construct: gene HRH3
Experimental: as §1

Serotonin 5HT1A (Human) = target: T18, Serotonin 5HT1A (Human) (Homo sapiens, UniProt P08908)
T18 construct: gene HTR1A
Experimental: as §1

Serotonin 5HT3 (Human) = target: T19, Serotonin 5HT3 (Human) (Homo sapiens, UniProt P46098)
T19 construct: gene HTR3A
Experimental: as §1

α2A-Adrenergic (Human) = target: T20, α2A-Adrenergic (Human) (Homo sapiens, UniProt P08913)
T20 construct: gene ADRA2A
Experimental: as §1

Bradykinin B1 (Human) = target: T21, Bradykinin B1 (Human) (Homo sapiens, UniProt P46663)
T21 construct: gene BDKRB1
Experimental: as §1

Endothelin ETA (Human) = target: T22, Endothelin ETA (Human) (Homo sapiens, UniProt P25101)
T22 construct: gene EDNRA
Experimental: as §1

Neuropeptide Y2 (Human) = target: T23, Neuropeptide Y2 (Human) (Homo sapiens, UniProt P49146)
T23 construct: gene NPY2R
Experimental: as §1

[3] = target: T24, Serotonin transporter (Human) (Homo sapiens, UniProt P31645)
T24 construct: gene SLC6A4
Experimental: as §1

Dopamine D1 (Human) = target: T25, Dopamine D1 (Human) (Homo sapiens, UniProt P21728)
T25 construct: gene DRD1
Experimental: as §1

Muscarinic M3 (Human) = target: T26, Muscarinic M3 (Human) (Homo sapiens, UniProt P20309)
T26 construct: gene CHRM3
Experimental: as §1

Serotonin 5HT2A (Human) = target: T27, Serotonin 5HT2A (Human) (Homo sapiens, UniProt P28223)
T27 construct: gene HTR2A
Experimental: as §1

Adenosine A2a (Human) = target: T28, Adenosine A2a (Human) (Homo sapiens, UniProt P29274)
T28 construct: gene ADORA2A
Experimental: as §1

[4] = target: T29, Dopamine D2 short (Human) (Homo sapiens, UniProt P14416)
T29 construct: gene DRD2; short isoform
Experimental: as §1

GABA B = target: T30, GABA B (Rattus norvegicus, UniProt Q9Z0U4)
T30 construct: gene Gabbr1
Experimental: as §1

Opiate κ (Human) = target: T31, Opiate κ (Human) (Homo sapiens, UniProt P41145)
T31 construct: gene OPRK1
Experimental: as §1

Neurokinin NK1 (Human) = target: T32, Neurokinin NK1 (Human) (Homo sapiens, UniProt P25103)
T32 construct: gene TACR1
Experimental: as §1

Sigma σ2 = target: T33, Sigma σ2 (Rattus norvegicus, UniProt Q5U3Y7)
T33 construct: gene Tmem97
Experimental: as §1

α2B-Adrenergic (Human) = target: T34, α2B-Adrenergic (Human) (Homo sapiens, UniProt P18089)
T34 construct: gene ADRA2B
Experimental: as §1

Muscarinic M1 (Human) = target: T35, Muscarinic M1 (Human) (Homo sapiens, UniProt P11229)
T35 construct: gene CHRM1
Experimental: as §1

α1A-Adrenergic = target: T36, α1A-Adrenergic (Rattus norvegicus, UniProt P43140)
T36 construct: gene Adra1a
Experimental: as §1

Androgen = target: T37, Androgen (Rattus norvegicus, UniProt P15207)
T37 construct: gene Ar
Experimental: as §1

Histamine H1 (Human) = target: T38, Histamine H1 (Human) (Homo sapiens, UniProt P35367)
T38 construct: gene HRH1
Experimental: as §1

Endothelin ETB (Human) = target: T39, Endothelin ETB (Human) (Homo sapiens, UniProt P24530)
T39 construct: gene EDNRB
Experimental: as §1

Cannabinoid CB2 (Human) = target: T40, Cannabinoid CB2 (Human) (Homo sapiens, UniProt P34972)
T40 construct: gene CNR2
Experimental: as §1

Opiate δ (Human) = target: T41, Opiate δ (Human) (Homo sapiens, UniProt P41143)
T41 construct: gene OPRD1
Experimental: as §1

β1-Adrenergic (Human) = target: T42, β1-Adrenergic (Human) (Homo sapiens, UniProt P08588)
T42 construct: gene ADRB1
Experimental: as §1

T37 sequence (P15207 whole entry S389L): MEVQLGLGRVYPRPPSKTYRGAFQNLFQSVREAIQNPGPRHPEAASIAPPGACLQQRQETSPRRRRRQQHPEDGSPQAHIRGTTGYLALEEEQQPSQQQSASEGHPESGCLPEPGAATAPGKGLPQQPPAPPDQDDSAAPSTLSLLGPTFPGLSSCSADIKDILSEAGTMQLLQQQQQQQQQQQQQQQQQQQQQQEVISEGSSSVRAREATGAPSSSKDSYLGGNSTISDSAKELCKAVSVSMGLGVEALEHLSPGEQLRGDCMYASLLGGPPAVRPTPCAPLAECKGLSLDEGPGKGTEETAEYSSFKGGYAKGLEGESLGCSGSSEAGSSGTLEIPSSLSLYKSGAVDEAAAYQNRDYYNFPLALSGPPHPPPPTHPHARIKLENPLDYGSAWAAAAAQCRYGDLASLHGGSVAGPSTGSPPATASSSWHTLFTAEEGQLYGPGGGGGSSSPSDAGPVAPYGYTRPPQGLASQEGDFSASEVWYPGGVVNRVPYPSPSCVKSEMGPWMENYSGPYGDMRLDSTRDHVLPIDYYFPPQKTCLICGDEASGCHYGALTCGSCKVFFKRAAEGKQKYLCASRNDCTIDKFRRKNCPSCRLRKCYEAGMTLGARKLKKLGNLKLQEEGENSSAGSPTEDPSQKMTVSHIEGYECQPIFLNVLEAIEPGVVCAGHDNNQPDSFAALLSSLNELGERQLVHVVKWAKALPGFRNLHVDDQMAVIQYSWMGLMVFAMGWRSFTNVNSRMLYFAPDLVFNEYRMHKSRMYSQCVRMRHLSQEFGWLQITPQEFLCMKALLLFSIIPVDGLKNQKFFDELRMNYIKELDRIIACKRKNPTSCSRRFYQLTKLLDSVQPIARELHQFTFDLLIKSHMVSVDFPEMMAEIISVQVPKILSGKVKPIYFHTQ
T19 sequence (P46098 whole entry): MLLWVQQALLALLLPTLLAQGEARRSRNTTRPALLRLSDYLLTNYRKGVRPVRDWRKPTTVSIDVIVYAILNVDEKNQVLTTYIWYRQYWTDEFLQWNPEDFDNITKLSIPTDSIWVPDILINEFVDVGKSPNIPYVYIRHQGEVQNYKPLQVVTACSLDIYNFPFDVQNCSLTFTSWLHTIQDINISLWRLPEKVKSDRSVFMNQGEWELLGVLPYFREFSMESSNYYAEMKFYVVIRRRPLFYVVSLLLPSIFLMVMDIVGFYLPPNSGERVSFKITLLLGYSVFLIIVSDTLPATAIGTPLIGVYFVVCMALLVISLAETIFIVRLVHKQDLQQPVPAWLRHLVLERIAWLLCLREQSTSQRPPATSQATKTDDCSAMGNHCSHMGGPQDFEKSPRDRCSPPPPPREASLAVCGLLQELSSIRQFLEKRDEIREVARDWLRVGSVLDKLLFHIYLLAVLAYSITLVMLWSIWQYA
T30 sequence (Q9Z0U4 whole entry): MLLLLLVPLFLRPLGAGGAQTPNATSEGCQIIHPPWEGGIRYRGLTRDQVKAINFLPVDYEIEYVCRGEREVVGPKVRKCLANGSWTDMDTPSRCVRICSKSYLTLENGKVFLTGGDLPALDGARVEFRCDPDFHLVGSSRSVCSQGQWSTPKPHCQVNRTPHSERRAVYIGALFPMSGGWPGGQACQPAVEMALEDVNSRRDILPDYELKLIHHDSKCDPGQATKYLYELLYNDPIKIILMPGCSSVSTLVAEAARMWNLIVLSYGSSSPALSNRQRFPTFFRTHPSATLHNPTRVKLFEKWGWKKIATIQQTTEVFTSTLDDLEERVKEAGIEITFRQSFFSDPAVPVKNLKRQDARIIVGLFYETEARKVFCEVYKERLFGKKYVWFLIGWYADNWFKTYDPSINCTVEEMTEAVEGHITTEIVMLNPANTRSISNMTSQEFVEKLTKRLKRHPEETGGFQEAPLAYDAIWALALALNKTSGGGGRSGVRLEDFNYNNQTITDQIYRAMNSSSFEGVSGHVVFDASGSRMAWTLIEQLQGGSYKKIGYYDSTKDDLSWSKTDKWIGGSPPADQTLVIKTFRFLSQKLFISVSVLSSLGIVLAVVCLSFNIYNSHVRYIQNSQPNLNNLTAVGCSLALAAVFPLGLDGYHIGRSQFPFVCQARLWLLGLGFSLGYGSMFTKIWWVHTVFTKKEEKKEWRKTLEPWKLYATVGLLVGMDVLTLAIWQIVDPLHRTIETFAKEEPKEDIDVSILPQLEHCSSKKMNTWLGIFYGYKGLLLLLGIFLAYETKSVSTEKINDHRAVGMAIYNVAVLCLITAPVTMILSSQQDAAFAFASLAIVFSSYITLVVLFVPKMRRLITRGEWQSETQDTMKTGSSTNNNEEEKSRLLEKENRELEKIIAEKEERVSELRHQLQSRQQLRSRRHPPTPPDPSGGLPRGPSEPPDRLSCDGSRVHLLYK
T30 sequence (O88871 whole entry partner): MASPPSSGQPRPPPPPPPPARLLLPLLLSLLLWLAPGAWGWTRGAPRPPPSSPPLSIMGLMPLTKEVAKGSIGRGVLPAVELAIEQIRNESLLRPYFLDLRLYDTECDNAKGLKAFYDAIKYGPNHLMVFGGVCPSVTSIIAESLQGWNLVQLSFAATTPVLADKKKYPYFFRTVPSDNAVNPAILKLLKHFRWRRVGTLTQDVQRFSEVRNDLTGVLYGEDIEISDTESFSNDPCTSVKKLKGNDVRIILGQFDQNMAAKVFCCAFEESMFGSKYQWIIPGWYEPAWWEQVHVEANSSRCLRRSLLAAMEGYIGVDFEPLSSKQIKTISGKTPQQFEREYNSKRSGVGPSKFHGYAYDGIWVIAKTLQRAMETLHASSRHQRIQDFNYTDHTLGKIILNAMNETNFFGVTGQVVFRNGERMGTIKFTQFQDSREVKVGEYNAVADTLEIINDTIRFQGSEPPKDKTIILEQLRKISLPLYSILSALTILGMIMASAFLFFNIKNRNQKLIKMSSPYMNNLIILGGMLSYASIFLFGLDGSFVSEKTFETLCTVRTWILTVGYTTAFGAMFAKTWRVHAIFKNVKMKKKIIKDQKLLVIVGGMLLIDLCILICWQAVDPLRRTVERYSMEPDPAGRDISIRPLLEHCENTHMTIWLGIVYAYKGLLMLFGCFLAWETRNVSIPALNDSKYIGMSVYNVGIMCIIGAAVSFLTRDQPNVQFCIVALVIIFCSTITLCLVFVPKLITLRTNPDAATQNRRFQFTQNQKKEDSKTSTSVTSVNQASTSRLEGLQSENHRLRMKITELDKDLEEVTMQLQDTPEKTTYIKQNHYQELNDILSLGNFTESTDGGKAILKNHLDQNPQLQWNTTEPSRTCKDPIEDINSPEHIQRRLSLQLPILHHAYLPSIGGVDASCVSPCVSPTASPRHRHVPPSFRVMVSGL
T3 sequence (P30411 whole entry): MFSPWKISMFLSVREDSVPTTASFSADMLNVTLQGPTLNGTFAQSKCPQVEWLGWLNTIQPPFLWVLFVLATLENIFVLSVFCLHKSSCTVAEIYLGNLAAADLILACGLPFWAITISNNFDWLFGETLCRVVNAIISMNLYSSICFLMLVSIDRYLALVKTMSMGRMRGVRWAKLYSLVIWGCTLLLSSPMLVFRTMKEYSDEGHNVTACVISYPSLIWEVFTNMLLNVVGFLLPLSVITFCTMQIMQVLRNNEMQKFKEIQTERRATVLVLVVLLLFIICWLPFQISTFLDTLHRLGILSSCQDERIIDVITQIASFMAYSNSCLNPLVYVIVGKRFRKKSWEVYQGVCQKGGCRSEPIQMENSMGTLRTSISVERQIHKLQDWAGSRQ
T8 sequence (P21554 whole entry): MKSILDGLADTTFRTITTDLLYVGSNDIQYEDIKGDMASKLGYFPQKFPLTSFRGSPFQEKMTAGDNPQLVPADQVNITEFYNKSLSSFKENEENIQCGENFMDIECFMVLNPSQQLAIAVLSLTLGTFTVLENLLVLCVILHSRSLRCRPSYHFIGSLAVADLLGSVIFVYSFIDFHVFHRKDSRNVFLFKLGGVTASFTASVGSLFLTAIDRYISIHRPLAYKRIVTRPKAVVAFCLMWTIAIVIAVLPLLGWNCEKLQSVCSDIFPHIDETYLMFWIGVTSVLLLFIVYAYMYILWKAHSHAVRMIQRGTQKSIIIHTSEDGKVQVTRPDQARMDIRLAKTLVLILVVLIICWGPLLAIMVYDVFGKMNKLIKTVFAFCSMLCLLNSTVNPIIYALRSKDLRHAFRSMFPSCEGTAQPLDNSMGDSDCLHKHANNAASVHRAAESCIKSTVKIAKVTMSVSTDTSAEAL
T6 sequence (P04150 whole entry): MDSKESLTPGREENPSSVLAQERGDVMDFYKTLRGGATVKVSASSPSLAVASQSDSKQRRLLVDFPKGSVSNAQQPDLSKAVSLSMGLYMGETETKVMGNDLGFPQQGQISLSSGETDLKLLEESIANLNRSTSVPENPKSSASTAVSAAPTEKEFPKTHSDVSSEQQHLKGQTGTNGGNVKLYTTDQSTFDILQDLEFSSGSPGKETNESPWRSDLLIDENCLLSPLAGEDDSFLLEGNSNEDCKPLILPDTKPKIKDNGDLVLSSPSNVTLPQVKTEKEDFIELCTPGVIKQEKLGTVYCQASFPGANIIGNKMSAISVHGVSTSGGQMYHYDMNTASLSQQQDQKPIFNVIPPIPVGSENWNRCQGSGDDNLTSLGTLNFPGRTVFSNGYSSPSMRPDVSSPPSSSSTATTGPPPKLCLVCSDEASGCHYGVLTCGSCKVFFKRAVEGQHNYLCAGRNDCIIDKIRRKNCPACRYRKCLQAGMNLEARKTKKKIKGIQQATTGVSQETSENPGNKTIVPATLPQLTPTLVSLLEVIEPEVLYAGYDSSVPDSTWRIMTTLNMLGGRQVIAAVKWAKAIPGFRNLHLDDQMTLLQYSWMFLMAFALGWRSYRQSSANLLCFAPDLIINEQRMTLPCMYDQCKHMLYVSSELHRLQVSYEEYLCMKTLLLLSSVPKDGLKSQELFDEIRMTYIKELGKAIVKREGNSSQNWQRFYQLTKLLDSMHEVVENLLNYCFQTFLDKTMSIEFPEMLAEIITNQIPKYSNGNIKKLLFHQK

COc1c(C)cnc(Cn2cnc3c(Cl)nc(N)nc32)c1C [BIIB021, 6-Chloro-9-[(4-methoxy-3,5-dimethylpyridin-2-yl)methyl]-9H-purin-2-amine]
inhibition at 10 µM [1]: 0% | inhibition at 10 µM (Histamine H2 (Human)): 0.7% | inhibition at 10 µM (Bradykinin B2 (Human)): 0% | inhibition at 10 µM (Muscarinic M2 (Human)): 4.6% | inhibition at 10 µM (α1B-Adrenergic): 0% | inhibition at 10 µM (Glucocorticoid (Human)): 0% | inhibition at 10 µM (Adenosine A1 (Human)): 8.4% | inhibition at 10 µM (Cannabinoid CB1 (Human)): 5.1% | inhibition at 10 µM [2]: 1.1% | inhibition at 10 µM (Angiotensin AT1 (Human)): 0% | inhibition at 10 µM (Melatonin MT1 (Human)): 26% | inhibition at 10 µM (Vasopressin V1): 3% | inhibition at 10 µM (CCK A (Human)): 2.8% | inhibition at 10 µM (β2-Adrenergic (Human)): 0.9% | inhibition at 10 µM (Opiate μ (Human)): 0% | inhibition at 10 µM (Dopamine D3 (Human)): 0.4% | inhibition at 10 µM (Histamine H3 (Human)): 4.5% | inhibition at 10 µM (Serotonin 5HT1A (Human)): 7.6% | inhibition at 10 µM (Serotonin 5HT3 (Human)): 18% | inhibition at 10 µM (α2A-Adrenergic (Human)): 13% | inhibition at 10 µM (Bradykinin B1 (Human)): 0% | inhibition at 10 µM (Endothelin ETA (Human)): 4.8% | inhibition at 10 µM (Neuropeptide Y2 (Human)): 1.3% | inhibition at 10 µM [3]: 0% | inhibition at 10 µM (Dopamine D1 (Human)): 16% | inhibition at 10 µM (Muscarinic M3 (Human)): 1.9% | inhibition at 10 µM (Serotonin 5HT2A (Human)): 4.9% | inhibition at 10 µM (Adenosine A2a (Human)): 14% | inhibition at 10 µM [4]: 0.9% | inhibition at 10 µM (GABA B): 0% | inhibition at 10 µM (Opiate κ (Human)): 14% | inhibition at 10 µM (Neurokinin NK1 (Human)): 6.2% | inhibition at 10 µM (Sigma σ2): 2.4% | inhibition at 10 µM (α2B-Adrenergic (Human)): 0% | inhibition at 10 µM (Muscarinic M1 (Human)): 1.5% | inhibition at 10 µM (α1A-Adrenergic): 1.8% | inhibition at 10 µM (Androgen): 0.7% | inhibition at 10 µM (Histamine H1 (Human)): 8.1% | inhibition at 10 µM (Endothelin ETB (Human)): 4.7% | inhibition at 10 µM (Cannabinoid CB2 (Human)): 0% | inhibition at 10 µM (Opiate δ (Human)): 4.2% | inhibition at 10 µM (β1-Adrenergic (Human)): 0%
